Assay results as given in ChEMBL document CHEMBL1130277, “Three-dimensional quantitative structure-activity relationships from molecular similarity matrices and genetic neural networks. 2. Applications” (J Med Chem, 1997).
pEC50, pIC50: −log10 of the molar value.

What was measured:
[1] = biological target: T1, Aryl hydrocarbon receptor (Homo sapiens, UniProt P35869)
T1 sequence (P35869 whole entry): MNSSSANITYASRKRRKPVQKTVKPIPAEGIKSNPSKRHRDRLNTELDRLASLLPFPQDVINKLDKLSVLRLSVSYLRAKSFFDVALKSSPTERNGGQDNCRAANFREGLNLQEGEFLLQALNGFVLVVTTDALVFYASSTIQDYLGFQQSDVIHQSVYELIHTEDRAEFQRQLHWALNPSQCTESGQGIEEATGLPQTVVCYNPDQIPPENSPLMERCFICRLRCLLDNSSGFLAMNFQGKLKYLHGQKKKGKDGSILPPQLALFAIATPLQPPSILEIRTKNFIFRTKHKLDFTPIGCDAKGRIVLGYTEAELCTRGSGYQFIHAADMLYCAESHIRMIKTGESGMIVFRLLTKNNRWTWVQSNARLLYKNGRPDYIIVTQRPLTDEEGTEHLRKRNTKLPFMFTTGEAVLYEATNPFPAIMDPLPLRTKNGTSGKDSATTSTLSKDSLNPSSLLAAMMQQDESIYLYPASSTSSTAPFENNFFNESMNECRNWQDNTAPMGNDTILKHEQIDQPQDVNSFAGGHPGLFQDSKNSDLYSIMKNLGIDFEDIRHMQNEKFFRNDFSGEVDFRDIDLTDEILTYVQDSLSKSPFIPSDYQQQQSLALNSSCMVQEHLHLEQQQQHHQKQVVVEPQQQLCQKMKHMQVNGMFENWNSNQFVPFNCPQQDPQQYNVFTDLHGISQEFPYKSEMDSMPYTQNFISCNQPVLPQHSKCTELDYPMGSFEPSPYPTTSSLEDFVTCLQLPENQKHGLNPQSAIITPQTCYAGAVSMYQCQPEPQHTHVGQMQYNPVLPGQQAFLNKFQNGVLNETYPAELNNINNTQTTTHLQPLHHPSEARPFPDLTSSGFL
Description: Affinity on cytosolic Aromatic hydrocarbon receptor (Ah)

[2] = biological target: Acetylcholinesterase (Homo sapiens, UniProt P22303)
Acetylcholinesterase, sequence (P22303 whole entry): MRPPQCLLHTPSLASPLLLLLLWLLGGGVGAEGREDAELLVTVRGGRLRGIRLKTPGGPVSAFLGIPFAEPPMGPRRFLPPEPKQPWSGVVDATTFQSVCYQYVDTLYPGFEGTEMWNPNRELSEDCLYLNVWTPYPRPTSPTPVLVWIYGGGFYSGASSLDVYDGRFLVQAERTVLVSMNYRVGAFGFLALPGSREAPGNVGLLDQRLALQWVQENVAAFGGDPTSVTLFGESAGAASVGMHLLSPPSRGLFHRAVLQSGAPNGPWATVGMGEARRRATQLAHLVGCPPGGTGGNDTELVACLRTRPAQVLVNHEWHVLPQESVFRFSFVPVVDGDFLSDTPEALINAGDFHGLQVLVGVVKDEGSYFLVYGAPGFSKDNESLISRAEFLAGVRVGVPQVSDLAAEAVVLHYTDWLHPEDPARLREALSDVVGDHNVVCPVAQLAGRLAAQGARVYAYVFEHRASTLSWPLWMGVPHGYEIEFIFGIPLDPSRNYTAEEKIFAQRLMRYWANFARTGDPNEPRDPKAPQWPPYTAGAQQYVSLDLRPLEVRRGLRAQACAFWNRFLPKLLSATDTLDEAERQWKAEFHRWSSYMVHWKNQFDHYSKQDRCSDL
Description: Inhibition acetylcholinesterase (AChE) enzyme.

| Compound | pEC50 [1] | pIC50 [2] |
| --- | --- | --- |
| Clc1cc2c(cc1Br)Oc1cc(Br)c(Cl)cc1O2 | 9.35 |  |
| C[N+]1(C)CCO[C@@](O)(c2ccc(C#N)cc2)C1 |  | 1.94 |
| CCC(=O)Oc1cccc([N+](C)(C)C)c1C |  | 3.12 |
| CC(=O)Oc1cccc([N+](C)(C)C)c1C |  | 4.39 |
| Clc1cc2c(cc1Cl)Oc1c(ccc(Cl)c1Cl)O2 | 6.80 |  |
| Clc1cc2oc3c(Cl)c(Cl)cc(Cl)c3c2cc1Cl | 6.70 |  |
| Clc1cc2c(oc3c(Cl)cc(Cl)c(Cl)c32)c(Cl)c1Cl | 5.08 |  |
| Clc1cc2c(cc1Cl)Oc1cc(Br)c(Br)cc1O2 | 8.83 |  |
| C[N+]1(C)CCO[C@@](O)(c2ccc(Cl)cc2)C1 |  | 2.09 |
| COc1cccc([N+](C)(C)C)c1 |  | 3.22 |
| Clc1cccc2c1oc1ccccc12 | 3.00 |  |
| CCCCCC[N+](C)(C)C |  | 3.09 |
| Clc1cc2c(oc3c(Cl)cccc32)c(Cl)c1Cl | 6.46 |  |
| Clc1ccc(-c2cc(Cl)c(Cl)c(Cl)c2)cc1 | 4.55 |  |
| Clc1cc2oc3cc(Cl)c(Cl)c(Cl)c3c2cc1Cl | 7.13 |  |
| Clc1cc2c(cc1Cl)Oc1c(cc(Cl)c(Cl)c1Cl)O2 | 7.10 |  |
| C[N+](C)(C)c1cccc(N)c1 |  | 3.72 |
| CCOCC[N+](C)(C)C |  | 2.94 |
| CC(=O)Oc1ccc(C)c([N+](C)(C)C)c1 |  | 5.27 |
| Clc1ccc2c(c1)oc1c(Cl)c(Cl)c(Cl)cc12 | 7.60 |  |
| C[N+]1(C)CCO[C@H](O)C1 |  | 2.75 |

| Compound | pEC50 [1] | pIC50 [2] |
| --- | --- | --- |
| Clc1cc2oc3c(Cl)cccc3c2c(Cl)c1Cl | 6.46 |  |
| C[N+](C)(C)CCCCI |  | 3.33 |
| COc1cccc([N+](C)(C)C)c1C |  | 3.62 |
| C=CCC[N+](C)(C)C |  | 3.07 |
| Brc1cc(Br)c2c(c1)Oc1cc(Br)cc(Br)c1O2 | 7.03 |  |
| Clc1cc2c(cc1Cl)Oc1c(Cl)c(Cl)c(Cl)c(Cl)c1O2 | 6.55 |  |
| Clc1cc2c(cc1Cl)Oc1c(Cl)c(Cl)cc(Cl)c1O2 | 5.96 |  |
| Clc1ccc(-c2cc(Cl)c(Cl)c(Cl)c2)c(Cl)c1 | 4.85 |  |
| Clc1ccc(-c2cc(Cl)c(Cl)c(Cl)c2Cl)cc1 | 5.39 |  |
| Clc1cccc2c1Oc1ccccc1O2 | 4.00 |  |
| Clc1ccc2oc3c(Cl)c(Cl)c(Cl)c(Cl)c3c2c1 | 6.92 |  |
| CCC(=O)Oc1cc([N+](C)(C)C)ccc1C |  | 5.42 |
| Clc1cc2c(cc1Cl)Oc1c(Cl)cccc1O2 | 6.66 |  |
| Clc1ccc(-c2ccc(Cl)c(Cl)c2)cc1Cl | 6.15 |  |
| C[N+](C)(C)CCS |  | 3.36 |
| CCCC(=O)SCC[N+](C)(C)C |  | 3.90 |
| Clc1cc2oc3c(Cl)c(Cl)c(Cl)cc3c2cc1Cl | 7.82 |  |
| CC(=O)CCC[N+](C)(C)C |  | 4.07 |
| Clc1cc(Cl)c(-c2cc(Cl)c(Cl)c(Cl)c2)cc1Cl | 4.80 |  |
| Clc1cc(Cl)c2c(c1Cl)Oc1ccccc1O2 | 4.89 |  |
| CCCC(=O)OCC[N+](C)(C)C |  | 3.64 |

| Compound | pEC50 [1] | pIC50 [2] |
| --- | --- | --- |
| Clc1ccc(-c2cc(Cl)c(Cl)c(Cl)c2Cl)cc1Cl | 5.15 |  |
| Clc1ccc(-c2cc(Cl)c(Cl)cc2Cl)cc1Cl | 5.04 |  |
| Clc1ccc2c(c1)Oc1c(Cl)c(Cl)c(Cl)c(Cl)c1O2 | 5.19 |  |
| Clc1cc(Cl)c2oc3cc(Cl)c(Cl)cc3c2c1 | 6.66 |  |
| C=CC[N+](C)(C)C |  | 2.54 |
| Clc1cc2oc3cc(Cl)c(Cl)cc3c2cc1Cl | 7.39 |  |
| C[N+](C)(C)CCCCCBr |  | 3.27 |
| Clc1ccc2c(c1)oc1ccccc12 | 4.38 |  |
| C[N+](C)(C)CCCCBr |  | 3.22 |
| Brc1cc2c(cc1Br)Oc1c(cc(Br)c(Br)c1Br)O2 | 8.18 |  |
| C[N+](C)(C)CCCBr |  | 4.06 |
| Clc1cc(Cl)c2c(c1)oc1cc(Cl)c(Cl)c(Cl)c12 | 6.40 |  |
| Brc1ccc2c(c1)Oc1ccccc1O2 | 6.53 |  |
| C[N+]1(C)CCO[C@@](O)(C(F)(F)F)C1 |  | 2.42 |
| Clc1cc(-c2ccc(Cl)c(Cl)c2Cl)cc(Cl)c1Cl | 5.30 |  |
| Cc1c(O)cccc1[N+](C)(C)C |  | 3.85 |
| CCC(=O)Oc1cccc([N+](C)(C)C)c1 |  | 5.22 |
| Clc1ccc(-c2cc(Cl)c(Cl)c(Cl)c2)cc1Cl [POLYCHLORINATED BIPHENYL 126] | 6.89 |  |
| Clc1ccc2c(c1)Oc1cc(Cl)ccc1O2 | 5.50 |  |
